Laboratory results from paper PMC5025259 (ACS infectious diseases, 2016).

Legend:
[1] = tested on: Tf endocytosis in HeLa cells; test: HeLa cell endocytosis of transferrin; type: cell-based, human; conditions: each compound 10 μM, Tf-Alexa488 5 μg/mL, 15 min at 37 °C
[2] = tested on: BSA endocytosis in bloodstream T. brucei; test: Endocytosis assay: BSA-A647 uptake by bloodstream trypanosomes; type: cell-based, Trypanosoma brucei; conditions: bulk-phase uptake
[3] = tested on: bloodstream form (BSF) CA427 trypanosomes; test: Proliferation inhibition assay; type: cell-based, Trypanosoma brucei; conditions: axenic cultures of bloodstream trypanosomes, 48 h
rTbGSK3β = target: T1, rTbGSK3β (Trypanosoma brucei brucei, UniProt Q388M1); test: biochemical
T1 sequence (Q388M1 1-352): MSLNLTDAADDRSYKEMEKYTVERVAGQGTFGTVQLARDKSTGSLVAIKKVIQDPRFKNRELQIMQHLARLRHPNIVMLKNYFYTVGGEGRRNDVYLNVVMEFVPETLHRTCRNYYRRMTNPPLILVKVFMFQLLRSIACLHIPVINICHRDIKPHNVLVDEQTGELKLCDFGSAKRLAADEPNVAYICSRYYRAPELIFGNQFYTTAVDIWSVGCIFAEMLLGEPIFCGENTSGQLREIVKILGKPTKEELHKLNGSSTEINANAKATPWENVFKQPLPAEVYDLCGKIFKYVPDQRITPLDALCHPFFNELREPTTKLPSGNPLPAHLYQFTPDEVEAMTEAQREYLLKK

[4] = tested on: transferrin (Tf) endocytosis in bloodstream T. brucei; conditions: cited from earlier work
[5] = tested on: bloodstream form (BSF) CA427 trypanosomes; conditions: read-out: GI50 (concentration of drug that inhibits growth by 50%); trypanosome proliferation; cited from earlier work
[6] = tested on: transferrin (Tf) endocytosis in bloodstream T. brucei; type: cell-based, Trypanosoma brucei; conditions: Figure S1
[7] = tested on: Hp-Hb endocytosis in bloodstream T. brucei; test: Endocytosis assay: Hp-Hb-A488 uptake by bloodstream trypanosomes; type: cell-based, Trypanosoma brucei; conditions: Hp-Hb 38 nM
[8] = tested on: Tf endocytosis in TbGSK3β overexpression trypanosomes; test: Tf endocytosis in trypanosomes overexpressing TbGSK3β; type: cell-based, Trypanosoma brucei; conditions: clone 1, TWS119 10 μM, 3 h induction

SMILES	Effect on Tf endocytosis in HeLa cells [1]	Effect on BSA endocytosis [2]	T. brucei GL50 [3] [µM]	also measured
O=C1Nc2ccc3ncsc3c2/C1=C/Nc1ccc(S(=O)(=O)Nc2ccccn2)cc1 [GW8510]	Neither TbGSK3β inhibitor affected	decreased	0.12	
O=S(=O)(NCCNC/C=C/c1ccc(Br)cc1)c1cccc2cnccc12 [H-89]	decreased			
Cc1cc(Nc2cc(CN3CCOCC3)c3nc(C)c(Cc4ccc(Cl)cc4F)n3n2)n[nH]1 [LY2784544]			1.0	IC50 (rTbGSK3β): 0.6 ± 0.2 µM
CS(=O)(=O)CCNCc1ccc(-c2ccc3ncnc(Nc4ccc(OCc5cccc(F)c5)c(Cl)c4)c3c2)o1 [Lapatinib]				Effect on Tf endocytosis in T. brucei ([4]; ref Guyett, P.J., et al., manuscript submitted): blocks
C[C@@H](Nc1ncnc2[nH]c(-c3ccc(O)cc3)cc12)c1ccccc1 [PKI-166]		did not inhibit		GI50 [5]: 5 µM; Effect on Tf endocytosis [6]: did not inhibit; IC50 (rTbGSK3β): > 20 µM
CNC(=O)c1cc(Oc2ccc(NC(=O)Nc3ccc(Cl)c(C(F)(F)F)c3)cc2)ccn1 [Sorafenib]			3.1	
Nc1cccc(-c2cc3c(Oc4cccc(O)c4)ncnc3[nH]2)c1 [TWS119]	Neither TbGSK3β inhibitor affected	did not decrease	1.1	Effect on Hp-Hb endocytosis [7]: did not decrease; Reduction of Tf endocytosis driven by TbGSK3β overexpression [8]: 300%
N#C/C(=C\c1ccc(O)c(O)c1)C(N)=S [tyrphostin-A47]				Effect on Tf endocytosis in the parasite [4]: blocks
